US20210093521A1, “ANTIBACTERIAL ACTIVITY BY MG COMPLEX IN DEODORANT EMULSION FOR AEROSOLS, DEODORANT INCLUDING THE SAME AND USE OF THE DEODORANT” (Henkel AG & Co. KGaA, priority 2019, published 2021)

Legend:
[1] = test system: bacterial germs known to cause body odor; test: inhibition yard test, both germs tested; format: cell-based, Staphylococcus epidermidis, Staphylococcus hominis; conditions: agent within the deodorant emulsion
Text: The inhibition yard test (or agar diffusion test) is used to investigate the growth-inhibiting effect of substances or mixtures of substances on the most important bacterial germs known to cause body odor. For this purpose, the pathogen-containing material is spread out on a culture medium (usually on an agar layer within a Petri dish). Filter paper discs impregnated with the mixture of active substances to be tested or with a control without an active substance are placed on the bacterial layer so that the active substances can penetrate the material and spread there. If the test substance has an antimicrobial effect, clearly visible circles, so-called inhibition yards, form around the filter paper discs due to the inhibition of the pathogen growth. These can be measured in mm diameter.
An inhibition yard test was performed with deodorant emulsions containing the following potential or actual bacterial growth inhibiting additives (the amounts are given in weight %)

[2] = test system: four bacteria that cause body odor; test: membrane test, statements in text for all tested species; format: cell-based, Staphylococcus, Corynebacterium and Anaerococcus species; conditions: 14 h, agent or formulation in deodorant emulsion

Benzalkonium chloride
antibacterial effect in the deodorant emulsion (inhibition zone) [1]: good effect even in small quantities
antibacterial effectiveness in the membrane test [2]: good effect

CCCCCCC(CCCC)C(=O)O (stereo not drawn) [Isocarb, 2-butyloctanioc acid]
antibacterial effect in the deodorant emulsion (inhibition zone) [1]: no effect
